The data set relates to CCRIS mutagenicity, Ames/micronucleus/aberration tests. In words: CCRIS mutagenicity studies.
Where [1] appears, read: Test System: AMES SALMONELLA TYPHIMURIUM, Strain/Indicator: TA98, Metabolic Activation: NONE, Method: STANDARD PLATE.
Where [2] appears, read: Test System: AMES SALMONELLA TYPHIMURIUM, Strain/Indicator: TA100, Metabolic Activation: NONE, Method: STANDARD PLATE.
[3] abbreviates: Test System: AMES SALMONELLA TYPHIMURIUM, Strain/Indicator: TA1535, Metabolic Activation: NONE, Method: STANDARD PLATE.
The mark [4] stands for this setting: Test System: AMES SALMONELLA TYPHIMURIUM, Strain/Indicator: TA1535, Metabolic Activation: RAT, LIVER, S-9, AROCLOR 1254, Method: STANDARD PLATE.
Where [5] appears, read: Test System: AMES SALMONELLA TYPHIMURIUM, Strain/Indicator: TA1537, Metabolic Activation: NONE, Method: STANDARD PLATE.
Setting [6] is: Test System: AMES SALMONELLA TYPHIMURIUM, Strain/Indicator: TA1538, Metabolic Activation: NONE, Method: STANDARD PLATE.
Where [7] appears, read: Test System: AMES SALMONELLA TYPHIMURIUM, Strain/Indicator: TA1538, Metabolic Activation: RAT, LIVER, S-9, AROCLOR 1254, Method: STANDARD PLATE.
The mark [8] stands for this setting: Test System: AMES SALMONELLA TYPHIMURIUM, Strain/Indicator: TA98, Metabolic Activation: NONE, Method: PREINCUBATION
[9] abbreviates: Test System: AMES SALMONELLA TYPHIMURIUM, Strain/Indicator: TA98, Metabolic Activation: RAT, LIVER, S-9, AROCLOR 1254 (10%), Method: PREINCUBATION
Where [10] appears, read: Test System: AMES SALMONELLA TYPHIMURIUM, Strain/Indicator: TA100, Metabolic Activation: NONE, Method: PREINCUBATION
Where [11] appears, read: Test System: AMES SALMONELLA TYPHIMURIUM, Strain/Indicator: TA100, Metabolic Activation: RAT, LIVER, S-9, AROCLOR 1254 (10%), Method: PREINCUBATION
The mark [12] stands for this setting: Test System: AMES SALMONELLA TYPHIMURIUM, Strain/Indicator: TA1537, Metabolic Activation: NONE, Method: PREINCUBATION

Activity calls are given as the source filed them. How the calls were made is not given here.

These results are taken from PubChem BioAssay AID1259407 (Chemical Carcinogenesis Research Information System (CCRIS), 2018).

Regarding `O=S(=O)(O)c1c(N=Nc2c(O)ccc3ccccc23)ccc2ccccc12`, the mutagenic call reads like this: (Test System: AMES SALMONELLA TYPHIMURIUM, Strain/Indicator: TA98, Metabolic Activation: HAMSTER, LIVER, S-9, AROCLOR 1254, Method: STANDARD PLATE) “active; positive”; (Test System: AMES SALMONELLA TYPHIMURIUM, Strain/Indicator: TA98, Metabolic Activation: HAMSTER, LIVER, S-9, Method: PREINCUBATION (PRIVAL METHOD)) “inactive; negative”; under setting [1], “active; positive”; (Test System: AMES SALMONELLA TYPHIMURIUM, Strain/Indicator: TA98, Metabolic Activation: RAT, LIVER, S-9, AROCLOR 1254, Method: STANDARD PLATE) “inactive; negative”; (Test System: AMES SALMONELLA TYPHIMURIUM, Strain/Indicator: TA100, Metabolic Activation: HAMSTER, LIVER, S-9, AROCLOR 1254, Method: STANDARD PLATE) “active; positive”; under setting [2], “inactive; negative”. The mutagenic call (Test System: AMES SALMONELLA TYPHIMURIUM, Strain/Indicator: TA100, Metabolic Activation: RAT, LIVER, S-9, AROCLOR 1254, Method: STANDARD PLATE) was “inactive; negative”; the mutagenic call (Test System: AMES SALMONELLA TYPHIMURIUM, Strain/Indicator: TA1535, Metabolic Activation: HAMSTER, LIVER, S-9, AROCLOR 1254, Method: STANDARD PLATE) was “active; positive”; the mutagenic call under setting [3] was “inactive; negative”; the mutagenic call under setting [4] was “inactive; negative”; the mutagenic call under setting [5] was “inactive; negative”; the mutagenic call (Test System: AMES SALMONELLA TYPHIMURIUM, Strain/Indicator: TA1538, Metabolic Activation: HAMSTER, LIVER, S-9, AROCLOR 1254, Method: STANDARD PLATE) is “active; positive”. Besides, the mutagenic call under setting [6] is “inactive; negative”; the mutagenic call under setting [7] was “inactive; negative”; the mutagenic call (Test System: MOUSE LYMPHOMA, Strain/Indicator: L5178Y (TK+/TK-), Metabolic Activation: NONE, Method: SUSPENSION/PLATE) is “inactive; negative. reevaluation of results: inconclusive”; the mutagenic call (Test System: MOUSE LYMPHOMA, Strain/Indicator: L5178Y (TK+/TK-), Metabolic Activation: RAT, LIVER, S-9, AROCLOR 1254, Method: SUSPENSION/PLATE) is “inactive; negative. reevauluation of results: negative”.

As to `O=C1c2ccccc2C(=O)c2c(O)cccc21`, the mutagenic call is “inactive; negative” under setting [8]; “inactive; negative” under setting [9]; “inactive; negative” (Test System: AMES SALMONELLA TYPHIMURIUM, Strain/Indicator: TA98, Metabolic Activation: RAT, LIVER, S-9, AROCLOR 1254, Method: PREINCUBATION); “inactive; negative” under setting [10]; “inactive; negative” under setting [11]; “inactive; negative” (Test System: AMES SALMONELLA TYPHIMURIUM, Strain/Indicator: TA100, Metabolic Activation: RAT, LIVER, S-9, AROCLOR 1254, Method: PREINCUBATION). For the same compound, the mutagenic call (Test System: AMES SALMONELLA TYPHIMURIUM, Strain/Indicator: TA102, Metabolic Activation: NONE, Method: PREINCUBATION) was “inactive; negative”; the mutagenic call (Test System: AMES SALMONELLA TYPHIMURIUM, Strain/Indicator: TA102, Metabolic Activation: RAT, LIVER, S-9, AROCLOR 1254 (10%), Method: PREINCUBATION) is “inactive; negative”; the mutagenic call under setting [12] is “active; positive”; the mutagenic call (Test System: AMES SALMONELLA TYPHIMURIUM, Strain/Indicator: TA1537, Metabolic Activation: RAT, LIVER, S-9, AROCLOR 1254, Method: PREINCUBATION) is “active; positive”; the mutagenic call (Test System: UDS RODENT HEPATOCYTES, Strain/Indicator: THY INCORP, Metabolic Activation: NONE) is “active; positive”.

`NCCNCCNCCN`: the mutagenic call is “active; positive” (Test System: AMES SALMONELLA TYPHIMURIUM, Strain/Indicator: TA98, Metabolic Activation: HAMSTER, LIVER, S-9, AROCLOR 1254 (10%), Method: PREINCUBATION); “active; positive” under setting [8]; “active; positive” under setting [1]; “active; positive” under setting [9]; “active; positive” (Test System: AMES SALMONELLA TYPHIMURIUM, Strain/Indicator: TA98, Metabolic Activation: RAT, LIVER, S-9, PCB, Method: PREINCUBATION); “active; positive” (Test System: AMES SALMONELLA TYPHIMURIUM, Strain/Indicator: TA100, Metabolic Activation: HAMSTER, LIVER, S-9, AROCLOR 1254 (10%), Method: PREINCUBATION). The mutagenic call was “active; positive” under setting [10]; “active; positive” under setting [2]; “active; positive” under setting [11]; “active; positive” (Test System: AMES SALMONELLA TYPHIMURIUM, Strain/Indicator: TA100, Metabolic Activation: RAT, LIVER, S-9, PCB, Method: PREINCUBATION); “active; positive” (Test System: AMES SALMONELLA TYPHIMURIUM, Strain/Indicator: TA1535, Metabolic Activation: HAMSTER, LIVER, S-9, AROCLOR 1254 (10%), Method: PREINCUBATION); “active; positive” (Test System: AMES SALMONELLA TYPHIMURIUM, Strain/Indicator: TA1535, Metabolic Activation: NONE, Method: PREINCUBATION). The mutagenic call is “inactive; negative” under setting [3]; “active; positive” (Test System: AMES SALMONELLA TYPHIMURIUM, Strain/Indicator: TA1535, Metabolic Activation: RAT, LIVER, S-9, AROCLOR 1254 (10%), Method: PREINCUBATION); “active; positive” under setting [4]; “active; positive” (Test System: AMES SALMONELLA TYPHIMURIUM, Strain/Indicator: TA1537, Metabolic Activation: HAMSTER, LIVER, S-9, AROCLOR 1254 (10%), Method: PREINCUBATION); “active; positive” under setting [12]; “active; positive” under setting [5]. Besides, the mutagenic call is “active; positive” (Test System: AMES SALMONELLA TYPHIMURIUM, Strain/Indicator: TA1537, Metabolic Activation: RAT, LIVER, S-9, AROCLOR 1254 (10%), Method: PREINCUBATION); “inactive; negative” (Test System: AMES SALMONELLA TYPHIMURIUM, Strain/Indicator: TA1537, Metabolic Activation: RAT, LIVER, S-9, AROCLOR 1254, Method: STANDARD PLATE); “active; positive” under setting [6]; “inactive; negative” under setting [7]; “inactive; negative” (Test System: CHINESE HAMSTER OVARY, Strain/Indicator: CHO (HGPRT)/6-THIOGUANINE, Metabolic Activation: NONE); “inactive; negative” (Test System: CHINESE HAMSTER OVARY, Strain/Indicator: CHO (HGPRT)/6-THIOGUANINE, Metabolic Activation: RAT, LIVER, S-9, AROCLOR 1254). Also, the mutagenic call (Test System: UDS RAT HEPATOCYTES, Strain/Indicator: THY INCORP, Metabolic Activation: NONE, Method: SCINTILLATION SPECTROMETRY) is “active; positive”.

As for `CCN(C(=O)CCCCl)c1snc2ccccc12`, the mutagenic call is “inactive; negative” under setting [1]; “inactive; negative” (Test System: AMES SALMONELLA TYPHIMURIUM, Strain/Indicator: TA98, Metabolic Activation: S-9, Method: STANDARD PLATE); “inactive; negative” under setting [2]; “inactive; negative” (Test System: AMES SALMONELLA TYPHIMURIUM, Strain/Indicator: TA100, Metabolic Activation: S-9, Method: STANDARD PLATE); “inactive; negative” under setting [3]; “inactive; negative” (Test System: AMES SALMONELLA TYPHIMURIUM, Strain/Indicator: TA1535, Metabolic Activation: S-9, Method: STANDARD PLATE). Further, the mutagenic call is, setting by setting: under setting [5], “inactive; negative”; (Test System: AMES SALMONELLA TYPHIMURIUM, Strain/Indicator: TA1537, Metabolic Activation: S-9, Method: STANDARD PLATE) “inactive; negative”.
